Source: patent US9605041B2, “Regulatory proteins and inhibitors” (INTRA-CELLULAR THERAPIES, INC., priority 2009, dated 2017)
Entries after “also recorded” stand apart in the source; their conditions may differ.

Columns and labels:
[1] = tested on: Aβ production in Neuroblastoma 2a cells stably overexpressing human APP695; assay: Cellular Aβ production assay, incubation with G01 (4G8 immunoprecipitation, 6E10 blot); format: cell-based; conditions: 10 μM, 3 hr
Experimental: Neuroblastoma 2a cells stably overexpressing human APP695 are treated with 10 μM G01 for 3 hr. Cells treated with DMSO, or DMSO plus imatinib are used as controls. After 3 hr, conditioned medium is collected and Aβ immunoprecipitation is conducted using 4G8 antibody. The immunoprecipitated Aβ is separated on 10-20% Tris-tricine gel, transferred to PVDF membrane and detected by 6E10 antibody. […]

gSAP (16 kDa band) = biological target: T1, gSAP (16 kDa band) (Homo sapiens, UniProt A4D1B5); assay: Affinity capture on immobilized biotin-imatinib beads, silver staining; format: binding; conditions: HEK293 cell lysates, SDS-PAGE
T1 construct: the 16 kDa band is identified as the C-terminal domain of gSAP by MS/MS mass spectrometry; endogenous in cells; host or cells: CHAPSO-solubilized membrane extract of HEK293 cells
T1 sequence (A4D1B5 734-854 limits assumed): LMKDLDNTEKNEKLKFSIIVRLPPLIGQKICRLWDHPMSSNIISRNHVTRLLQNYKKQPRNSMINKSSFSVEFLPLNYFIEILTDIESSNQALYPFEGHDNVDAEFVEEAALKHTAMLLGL
Experimental: After cell debris is cleared by centrifugation at 1,000 g for 5 mins, the supernatant is subjected to ultracentrifugation at 100,000 g for 1 h. The membrane pellet is then solubilized on ice in 50 mM Hepes, 150 mM NaCl, 5 mM MgCl2, 5 mM CaCl2, and 1% CHAPSO containing protease inhibitors (Roche Inc. cat#04 693 132 001) for 1 h and subject to ultracentrifugation for 1 h at 100,000 g. The soluble membrane extracts are incubated with Myonen™ streptavidin T1 beads (cat#656-01, Invitrogen) containing bound active biotin-imatinib for 3 hr at 4° C. Subsequently, the beads are washed three times with lysate buffer. Bound proteins are eluted with tricine SDS-PAGE sample buffer and separated on 10-20% tris-tricine gels. For immunoblotting, the gel is then transferred to PVDF membrane and probed with γ-secretase antibodies: PS1 antibody (cat#529592) and Pen-2 antibody (cat#NE1008) are from EMD Biosciences and nicastrin antibody is from BD Transduction Laboratories (cat#612290). Silver staining is used to identify protein bands in SDS-PAGE gels. The ˜16 kDa band is excised, trypsinized, and sequenced by tandem MS/MS mass spectrometry.
Endogenous γ-secretase components are detected by specific antibodies to Nicastrin, PS1-CTF and Pen-2. Photoactivatible ^125I and ^3H-G01 are used to label membrane preparations or intact HEK293 cells, respectively. […]

Abl kinase [2] = biological target: T2, Abl kinase (Homo sapiens, UniProt P00519); assay: Kinase profiling (Millipore standard assay), Abl kinase
T2 sequence (P00519 whole entry): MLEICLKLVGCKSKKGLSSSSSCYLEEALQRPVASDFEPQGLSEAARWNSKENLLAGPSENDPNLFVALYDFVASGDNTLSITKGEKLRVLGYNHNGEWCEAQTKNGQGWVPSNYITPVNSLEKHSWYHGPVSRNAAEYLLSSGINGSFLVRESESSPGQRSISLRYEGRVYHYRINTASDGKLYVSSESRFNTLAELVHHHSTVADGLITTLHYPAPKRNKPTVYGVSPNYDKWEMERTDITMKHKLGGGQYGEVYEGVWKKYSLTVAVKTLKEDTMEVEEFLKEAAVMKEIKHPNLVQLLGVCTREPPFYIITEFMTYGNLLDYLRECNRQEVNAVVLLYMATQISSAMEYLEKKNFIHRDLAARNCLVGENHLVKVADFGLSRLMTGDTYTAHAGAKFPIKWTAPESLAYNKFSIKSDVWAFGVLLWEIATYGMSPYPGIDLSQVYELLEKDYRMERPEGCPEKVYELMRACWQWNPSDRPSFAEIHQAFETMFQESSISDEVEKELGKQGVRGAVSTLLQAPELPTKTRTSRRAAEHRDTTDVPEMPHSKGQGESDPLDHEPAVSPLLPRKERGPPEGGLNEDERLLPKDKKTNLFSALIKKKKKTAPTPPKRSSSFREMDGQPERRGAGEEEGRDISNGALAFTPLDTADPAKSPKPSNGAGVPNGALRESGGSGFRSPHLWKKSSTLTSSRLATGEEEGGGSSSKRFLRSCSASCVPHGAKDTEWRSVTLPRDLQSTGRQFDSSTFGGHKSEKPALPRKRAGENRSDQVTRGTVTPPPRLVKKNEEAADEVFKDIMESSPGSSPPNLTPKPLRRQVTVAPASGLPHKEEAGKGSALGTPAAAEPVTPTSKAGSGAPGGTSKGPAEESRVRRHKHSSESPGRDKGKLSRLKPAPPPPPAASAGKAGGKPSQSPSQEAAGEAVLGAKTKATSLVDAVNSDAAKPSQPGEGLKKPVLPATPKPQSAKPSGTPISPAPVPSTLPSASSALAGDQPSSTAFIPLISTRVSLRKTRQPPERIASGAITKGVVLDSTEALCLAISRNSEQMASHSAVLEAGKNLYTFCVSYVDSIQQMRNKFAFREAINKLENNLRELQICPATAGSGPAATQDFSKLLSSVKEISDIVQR

PDGF receptor = assay: Kinase profiling (Millipore standard assay), PDGF receptor; conditions: ATP=45 μM
γ-secretase = biological target: T3, γ-secretase (Homo sapiens, UniProt P49768); assay: In vitro γ-secretase assay, membranes from HEK293 cells with APP-β-CTF; format: biochemical
T3 construct: Membrane pellets are prepared from HEK293 cells transfected with APP-β-CTF (CT-100) as described above; endogenous in cells; host or cells: membranes of HEK293 cells transfected with APP-β-CTF (CT-100); gSAP-16K added from BL21 DE3 E. coli
Experimental: Membrane pellets are prepared from HEK293 cells transfected with APP-β-CTF (CT-100) as described above, and the membranes are washed with assay buffer (10 mM Hepes, 140 mM KOAc, 2.5 mM MgOAc, 0.1 mM CaCl2, 1 mM ATP, pH 7.2) and pelleted at 100,000 g for 30 min at 4° C. Recombinant gSAP-16K (aa733-854 of the human gSAP) is expressed and purified from BL21 DE3 E. coli. The membranes are resuspended in 200 μl of assay buffer with 2 μg recombinant gSAP-16K or the same amount of BSA as control. A parallel system with 1 μM L685,458 (γ-secretase inhibitor) is also used as a control. The membrane suspension is pre-incubated at 4° C. for 1 hr and then incubated for 2 hr at 37° C. to allow in vitro generation of Aβ. The membranes are solubilized in ¼ volume of 200 mM Tris, pH 7.8, 760 mM NaCl, 24 mM EDTA, 10% Triton X-100, and insoluble material is removed by centrifugation at 10,000 g for 20 min. Aβ is immunoprecipitated from the lysate using 4G8 antibody, separated on 10-20% Tris-tricine gel, transferred to PVDF membrane, and subjected to autoradiography using Kodak MR film.

panel of 40 kinases = assay: Panel of 40 kinases; format: biochemical; conditions: data not shown
mouse ΔE-Notch cleavage = assay: ΔE-Notch cleavage in HEK293 cells incubated with test compounds; format: cell-based, human; conditions: 4 h incubation, DAPT positive control
Experimental: For detection of Notch cleavage, HEK293 human embryonic kidney cells are transfected with mouse ΔE-Notch cDNA with a C-terminal myc tag. For analysis of ΔE-Notch cleavage, cells are incubated with test compounds for 4 h. Cell extracts are prepared by lysing cells in cell lysis buffer (50 mM Tris, pH7.5, 10 mM NaCl, 5 mM EGTA, 1 mM EDTA and complete protease inhibitors (Roche Diagnostics, Indianapolis, Ind.). Protein concentration is determined using Bradford protein detection reagent. Volume is adjusted with cell lysis buffer, then 4× sample loading buffer (Tris-Tricine gel loading buffer) is added, samples are heated 5 min at 95° C., and equivalent amounts of cell protein for each treatment are loaded onto a 10% Bis-Tris gel. C-terminal Notch species are detected with monoclonal anti-c-myc antibody 9E10 (Roche Diagnostics) and fluorescent goat anti-mouse secondary antibody. Fluorescent antibody is quantitated via LiCor Odyssey infrared fluorescence detector.

Aβ in N2a cell system = assay: Total human Aβ in the N2a cell system (sandwich ELISA, Western blot); format: cell-based
Experimental: Total human Aβ in the N2a cell system is measured in a standard sandwich ELISA by using a specific monoclonal antibody (6E10, Signet Laboratories) to capture the Aβ40 and Aβ42 and an antibody to Aβ17-24 (4G8, Signet Laboratories, Dedham, Mass.) for detection. Cell culture medium (5 μL/well) is diluted to 100 μL in phosphate-buffered saline/0.2% Tween 20 and loaded onto ELISA plates. For Western blot assays, cell medium is diluted with 2× tricine sodium dodecyl sulfate sample buffer, and heated at 95° C. for 5 min. […] Aβ is detected with antibody 4G8 and an Alexa 680-conjugated rabbit anti-mouse secondary and scanned with a LiCor Odyssey infrared scanner.

Abl kinase [3] = biological target: T2, Abl kinase; assay: Ki versus Abl kinase; format: biochemical
gSAP-16K (16 kDa band) = biological target: T4, gSAP-16K (16 kDa band) (Homo sapiens, UniProt A4D1B5); assay: In vitro and intact cell photolabeling with 125I-G01 / 3H-G01; format: binding; conditions: 20 nM 125I-G01 on membranes or 3H-G01 on intact cells, photolysis
T4 construct: is rapidly processed into a ˜16 kDa C-terminal fragment (gSAP-16K); endogenous in cells; host or cells: HEK293 membrane preparations (125I-G01) and intact HEK293 cells (3H-G01)
T4 sequence (A4D1B5 733-854): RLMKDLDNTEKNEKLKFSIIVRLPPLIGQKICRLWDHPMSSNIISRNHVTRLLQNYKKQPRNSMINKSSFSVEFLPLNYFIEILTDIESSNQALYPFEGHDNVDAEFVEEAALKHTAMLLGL
Experimental: For in vitro labeling, membrane pellets are prepared as described above and resuspended in 50 mM Hepes, pH 7.4, 150 mM NaCl, 5 mM MgCl2, 5 mM CaCl2. […] The bound material is eluted in SDS-tricine sample buffer and separated using 10-20% Tris-tricine gels, followed by transfer to PVDF membrane. The membrane is dried and exposed to Kodak MS film for autoradiography. For intact cell labeling, human embryonic kidney cells (HEK293) grown to ˜80% confluency (˜10^7 cells) are incubated with 0.1 μM ^3H-G01 in Opti-MEM for 2 hours in an incubator at 37° C., with 5% CO2 before being transferred to ice for an additional hour. Medium is removed and cells are washed twice with cold phosphate buffered saline (PBS), pH 7.4. […] The immunoprecipitate is washed 3 times with lysis buffer. The immuno-purified (IP) material is eluted with SDS sample buffer and product is separated using a 10-20% Tris-Tricine SDS-PAGE gel, transferred to PVDF membrane, and the membrane dried and exposed to Kodak MS film for autoradiography.
Endogenous γ-secretase components are detected by specific antibodies to Nicastrin, PS1-CTF and Pen-2. […] After lysis and immunoprecipitation with PS1 antibody, bound proteins are separated by 10-20% Tris-tricine SDS-PAGE.
Intact N2a cell labeling is performed by incubation with ^3H-G01. Cells are lysed with RIPA buffer and proteins were immunoprecipitated with gSAP antibody.

Aβ production = conditions: Netzer et al. 2003; cited from earlier work
gSAP = biological target: T5, gSAP (Mus musculus, UniProt Q3TCV3); assay: siRNA knockdown of gSAP in neuroblastoma cells overexpressing APP695, gSAP level and Aβ; format: cell-based
T5 construct: pulse-chase labeling of endogenous gSAP in N2a cells; endogenous in cells; host or cells: Neuroblastoma 2a cells stably overexpressing APP695
T5 sequence (Q3TCV3 738-858 limits assumed): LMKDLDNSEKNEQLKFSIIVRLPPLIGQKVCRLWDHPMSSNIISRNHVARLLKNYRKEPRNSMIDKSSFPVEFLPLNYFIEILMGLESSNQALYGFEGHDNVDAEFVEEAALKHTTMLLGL
Experimental: For cellular gSAP knockdown experiments, small interfering RNA (siRNA) of gSAP is purchased from Dharmacon Inc. The sequences of the siRNA used are as follow: sense sequence: [NT]; antisense sequence: 5'-[NT] Neuroblastoma 2a cell line stably overexpressing APP695 is transfected with siRNA using DharmaFect 2 reagent at a concentration of 50 nM following instructions provided by the manufacturer. […] To assay Aβ, the medium is removed after 48 h of transfection and replaced with Opti-MEM for 3 h incubation. Aβ is then immunoprecipitated from conditioned medium using the 4G8 antibody. Quantitation of Aβ levels in the conditioned medium is also assessed using Aβ40 and Aβ42 ELISA kits (Invitrogen). The procedures are carried out according to the manufacturer's instructions.

For `Cc1ccc(NC(=O)c2ccc(N=[N+]=[N-])cc2O)cc1Nc1nccc(-c2cccnc2)n1` [G01, 4-azido-2-hydroxy-N-(4-methyl-3-(4-(pyridin-3-yl)pyrimidin-2-ylamino)phenyl)benzamide], the “Aβ in conditioned medium compared to DMSO vehicle” value [1] was “significantly reduces Aβ”.

In the case of `Cc1ccc(NC(=O)c2ccc(CN3CCN(C(=O)CCCC[C@@H]4SC[C@@H]5NC(=O)N[C@@H]54)CC3)cc2)cc1Nc1nccc(-c2cccnc2)n1` [IC200001], the “binding of the ~16 kDa band (gSAP) to the immobilized compound” value (gSAP (16 kDa band)) is reported as “does not bind”, the “inhibitory activity toward Abl kinase” value (Abl kinase [2]; ATP=45 μM) is reported as “no significant inhibitory activity” and the “inhibitory activity toward PDGF receptor” value (PDGF receptor) is reported as “no significant inhibitory activity”.

For `Cc1ccc(NC(=O)c2ccc(CN3CCN(CCNC(=O)CCCC[C@@H]4SC[C@@H]5NC(=O)N[C@@H]54)CC3)cc2)cc1Nc1nccc(-c2cccnc2)n1` [IC339239], the IC50 (Abl kinase [2]) was 0.146 µM and the IC50 (PDGF receptor; read-out: IC50 against PDGF receptor) was 6.6 µM.

With `CC(C)C[C@H](NC(=O)[C@H](Cc1ccccc1)C[C@@H](O)[C@H](Cc1ccccc1)NC(=O)OC(C)(C)C)C(=O)N[C@@H](Cc1ccccc1)C(N)=O` [L685,458, reference compound] the “Aβ production in the in vitro γ-secretase assay” value (γ-secretase; 1 μM) was “abolishes Aβ production”.

In the case of `Cc1ncc(NC(=O)c2ccc(CC3CCN(C)CC3)cc2)cc1Nc1nccc(-c2ccccc2)n1` [N-(6-methyl-5-(4-phenylpyrimidin-2-ylamino)pyridin-3-yl)-4-((1-methylpiperidin-4-yl)methyl)benzamide], the “kinase inhibitory activity against a panel of 40 kinases” value (panel of 40 kinases) is reported as “little kinase inhibitory activity”, the “influence on NOTCH metabolism” value (mouse ΔE-Notch cleavage) is reported as “do not influence NOTCH metabolism” and the “concentrations that significantly lower Aβ” value (Aβ in N2a cell system) is reported as less than 500 nM. The Ki (Abl kinase [3]) was roughly 12 µM and the “weaker activity versus Abl kinase compared to imatinib” value (Abl kinase [3]) was 100 fold.

In the case of `Cc1ccc(NC(=O)c2ccc(N=[N+]=[N-])cc2O)cc1Nc1nccc(-c2cccnc2)n1` [^3H-G01], the “photolabeling of the 16 kDa protein (gSAP-16K)” value (gSAP-16K (16 kDa band)) is reported as “specifically labeled”.

For `Cc1ccc(NC(=O)c2ccc(CN3CCN(C)CC3)cc2)cc1Nc1nccc(-c2cccnc2)n1` [imatinib, reference compound], the “production of Aβ” value (Aβ production) is listed as “inhibits production of Aβ” and the “additional effect of imatinib on Aβ levels under gSAP siRNA knockdown” value (gSAP) is listed as “not additive; also recorded: little or no additional effect”.

For “siRNA: siRNA of gSAP, sense AUGCAGAGCUGGACGACAUUU, antisense 5′-P.AUGUCGUCCAGCUCUGCAUUU (5'-phosphate on antisense, further chemistry not given here)”, the “decrease of the level of Aβ” value (gSAP; gSAP siRNA knockdown) was “about 50%” and the “reduction of gSAP level” value (gSAP; siRNA 50 nM) was 72±15%.

B1: gSAP-16K: recombinant 16 kDa C-terminal fragment, aa 733-854 of human gSAP, expressed in E. coli (protein, UniProt A4D1B5 733-854, looked up, fragment)
chain: RLMKDLDNTEKNEKLKFSIIVRLPPLIGQKICRLWDHPMSSNIISRNHVTRLLQNYKKQPRNSMINKSSFSVEFLPLNYFIEILTDIESSNQALYPFEGHDNVDAEFVEEAALKHTAMLLGL
In the case of B1, the “stimulation of Aβ production” value (γ-secretase; 2 μg recombinant gSAP-16K added to membranes, BSA control) is reported as 2.4±0.3 fold.
